The values below come from publication PMC5520047, “Prioritizing multiple therapeutic targets in parallel using automated DNA-encoded library screening” (Nature Communications, 2017).

≈ marks a conversion by molar mass, not a printed value. Like-named read-outs stand apart in the source and are kept apart here.

The test system of assay [1] is E. coli TOP10 ∆TolC, pHN678’ and pHN678’-LolA antisense. Briefly: MoA study: MIC in lolA antisense expressor. The class given is cell-based, Escherichia coli. Conditions: for MIC: Escherichia coli; for Fold MIC decrease: lolA antisense plasmid compared to vector alone.
For assay [2], the system named is A. baumannii BM4652 efflux mutant, pRK415 and pRK415-UppS. As to the kind of experiment: microbe, parasite or virus in culture. The class given is cell-based, Acinetobacter baumannii. The following applies: 30 μg/ml polymyxin B nonapeptide; for MIC: Acinetobacter baumannii; for Fold MIC increase: pRK415-UppS overexpressing strain relative to parent strain.
The subject of assay [3] is Escherichia coli 7623 ΔtolC. Briefly: MIC broth microdilution. In kind it is cell-based.
Assay [4] relates to Acinetobacter baumannii ATCC 19606-1 ΔLpxC. Briefly: MIC broth microdilution. In kind it is cell-based. The following applies: ATCC19606. (In general: Dilution methods test growth across graded concentrations, often in twofold steps.)
The test system of assay [5] is A. baumannii BM4652 strains. As to the kind of experiment: Potentiation of teicoplanin MIC by LpxA compound 4. In kind it is cell-based, Acinetobacter baumannii.
Assay [6] concerns Staphylococcus aureus RN4220. Briefly: MIC broth microdilution. In kind it is cell-based. Conditions: S. aureus RN4220 Gram-positive. On the procedure: (§1) 409 remaining NADPH to convert resazurin into the fluorescent resorufin14. The assay buffer containing
(§2) 410 81.4 mM Hepes pH 7.8, 300 mM KCl, 0.4 mg/mL BSA was used to make the enzyme addition containing
(§3) 411 1.2 μg/mL Mtb DHFR and 50 μM NADPH. This was added in equal volume (5 μL) to a substrate solution
(§4) 412 composed of 240 µM DHF in H2O and incubated for 50 min. Developing solution was prepared with
(§5) 413 0.045 mM Resazurin and 0.6 U/ml Diaphorase in 200 mM sodium phosphate buffer pH 7.8 and 5 μL was
(§6) 414 added. The experiments were conducted in black 384-well plates (Greiner Catalog # 784076) and all
(§7) 415 liquid additions were conducted using a Multidrop combi (Thermo Scientific). The plate was read on a
(§8) 416 ViewLux following a 10 minute delay. Resorufin light production was measured using appropriate
(§9) 417 Viewlux filters: Ex: 525 / 20 Pol (BODIPY TMR FP) Em: 598 / 25 (BODIPY TMR) (B04). Assay plates were
(§10) 418 pre-dispensed with 100 nL DMSO or with 100 nL compounds dissolved in neat DMSO using an Echo®
(§11) 419 liquid handler (Labcyte Inc.) where all wells contained compound samples, except wells in columns 6
420 and 18 that contained DMSO control. Column 6 represented 100% Mtb DHFR activity in the absence of […]
424 were calculated using the n-1 method. […]
(§12) 440 saline). […] Fluorescence was measured (Spectramax M5 […]
(§13) 444 Minimum inhibitory concentrations (MICs) of compounds were determined using broth microdilution […]

Assay [7] deals with Klebsiella pneumoniae 1161486a ΔtolC. As to the kind of experiment: MIC broth microdilution. The class given is cell-based.
Assay [8] concerns Pseudomonas aeruginosa PA0322 Δ(mexAB-oprM) Δ(mexCD-oprJ) Δ(mexEF-oprN). Briefly: MIC broth microdilution. The class given is cell-based.
Assay [9] concerns A. baumannii BM4652, BM4652/pRK415, BM4652/pRK415-LpxA. Briefly: MoA study: MIC and MGIC in LpxA overexpressor. In kind it is cell-based. The following applies: Acinetobacter baumannii.
Assay [10] relates to Acinetobacter baumannii BM4652 ΔadeABC ΔadeIJK (efflux mutant). Briefly: MIC broth microdilution. The class given is cell-based.
The test system of assay [11] is H. influenzae ΔtolC. Briefly: MIC broth microdilution. Conditions: Haemophilus influenzae. In kind it is cell-based.
The target of assay [12] is M. tuberculosis Dihydrofolate reductase (DHFR) (Mycobacterium tuberculosis, UniProt P9WNX1). Briefly: biochemical.
Assay [13] deals with M. tuberculosis H37Rv. As to the kind of experiment: MIC determination against M. tuberculosis H37Rv (resazurin). The following applies: Mycobacterium tuberculosis. In kind it is cell-based. How it is done:
as §1, §2, §3, §4, §5, §6, §7, §8, §9, §10, §11
420 and 18 that contained DMSO control. Column 6 represented 100% Mtb DHFR activity in the absence of
421 GSK compounds. […] Compounds were
422 tested at 1% DMSO in 11 point dose response with a 1:3 dilution and fit to a standard 4 parameter fit to
423 calculate an IC50 value and are reported as the average of two replicates. Standard deviation values
424 were calculated using the n-1 method.
428 Minimum Inhibitory Concentration Assays:
429 MIC determination against M. tuberculosis H37Rv:
430 The measurement of the Minimum Inhibitory Concentration (MIC) against M. tuberculosis H37Rv for
431 each tested compound was performed in 96-well flat-bottom, polystyrene microtiter plates in a final
432 volume of 100 μl. Ten two-fold drug dilutions in neat DMSO starting at 50 mM were performed. Drug […]
as §12, §13
On the technique in general: Alamar Blue is a resazurin reagent that responds to reducing activity.

The mark [14] stands for this setting: E. coli TOP10 ∆TolC + pHN678’-LolA antisense.
[15] abbreviates: A. baumannii BM4652 efflux mutant + pRK415-UppS.
Setting [16] is: A. baumannii BM4652 efflux mutant + pRK415.
Where [17] appears, read: A. baumannii BM4652 efflux mutant, N/A (no plasmid).
Where [18] appears, read: A. baumannii BM652 efflux strain.
Setting [19] is: A. baumannii BM4652 ΔadeABC ΔadeIJK efflux mutant.
[20] abbreviates: M. tuberculosis DHFR, average of two replicates with s.d., read-out: IC50.

Sequence of M. tuberculosis Dihydrofolate reductase (DHFR) (P9WNX1 whole entry): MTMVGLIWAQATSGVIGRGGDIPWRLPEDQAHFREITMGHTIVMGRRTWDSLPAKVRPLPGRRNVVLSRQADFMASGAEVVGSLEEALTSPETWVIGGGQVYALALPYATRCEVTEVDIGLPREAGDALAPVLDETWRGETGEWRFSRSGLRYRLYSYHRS

On to `CC[C@H]1OC(=O)[C@H](C)[C@@H](O[C@H]2C[C@@](C)(OC)[C@@H](O)[C@H](C)O2)[C@H](C)[C@@H](O[C@@H]2O[C@H](C)C[C@H](N(C)C)[C@H]2O)[C@](C)(O)C[C@@H](C)CN(C)[C@H](C)[C@@H](O)[C@]1(C)O` [Azithromycin], for which the MIC in assay [1] (E. coli TOP10 ∆TolC + pHN678’) was determined as 0.0156 µg/mL; in [1] (setting [14]), 0.0039 µg/mL; in assay [2] (setting [15]), 0.031 µg/mL; in [2] (setting [16]) it was 0.031 µg/mL; in [2] (setting [17]), 0.031 µg/mL. The “Fold MIC decrease” value in assay [1] was 4 fold. The “Fold MIC increase” value is given as 1 fold in [2] and “unchanged” in [2] (listed as azithromycin).

Regarding `CC(C)(O/N=C(\C(=O)N[C@@H]1C(=O)N2C(C(=O)[O-])=C(C[n+]3ccccc3)CS[C@H]12)c1csc(N)n1)C(=O)O` [Ceftazidime], the MIC in [2] (setting [15]), in [2] (setting [16]) and in [2] (setting [17]) was 0.5 µg/mL each time. Moreover, the “Fold MIC increase” value is 1 fold in [2] and “unchanged” in assay [2] (listed as ceftazidime).

Turning to `O=C(O)c1cn(C2CC2)c2cc(N3CCNCC3)c(F)cc2c1=O` [Ciprofloxacin], the MIC in assay [1] (E. coli TOP10 ∆TolC + pHN678’) and in assay [1] (setting [14]) was 0.0078 µg/mL throughout.

In the case of `Cc1cc(C)c(NC(=O)NC(CCC(=O)N2CCN(C)CC2)C(=O)Nc2cccc3c2CCCC3)c(C)c1` (stereo not shown) [Compound 4], the MIC in [3], in assay [4], in assay [6], in assay [7], in assay [8] and in assay [9] (A. baumannii BM4652 (efflux-)) was more than 128 µg/mL throughout. The MIC in assay [9] (A. baumannii BM4652/pRK415 (efflux-)) is more than 128 µg/mL; in assay [9] (A. baumannii BM4652/pRK415-LpxA (efflux-)) it was more than 128 µg/mL; in [9] (read-out: MGIC (minimum growth inhibition concentration), A. baumannii BM4652 (efflux-)), 8 µg/mL (≈ 15.4 µM); in [9] (read-out: MGIC (minimum growth inhibition concentration), A. baumannii BM4652/pRK415 (efflux-)), 8 µg/mL (≈ 15.4 µM); in [9] (read-out: MGIC (minimum growth inhibition concentration), A. baumannii BM4652/pRK415-LpxA (efflux-)) it was more than 128 µg/mL; in [10] (setting [18]) it was more than 64 µg/mL. The molecule also showed an MIC in assay [10] (setting [19]) of more than 128 µg/mL. The entries for the “concentration of compound 4 required to completely potentiate teicoplanin” value in assay [5] (A. baumannii BM4652) and in [5] (A. baumannii BM4652 with LpxA overexpressor clone) were 32 µg/mL and more than 128 µg/mL, respectively.

`CCNc1cc(N2CCc3cc(NS(C)(=O)=O)ccc3C2C)nc(-c2cc(F)cc(C#N)c2)n1` (stereo not shown) [Compound 6]: the MIC was 128 µg/mL in [1] (E. coli TOP10 ∆TolC + pHN678’); 4 µg/mL in [1] (setting [14]); more than 128 µg/mL in assay [3]; 32 µg/mL (≈ 66.6 µM) in assay [4]; more than 128 µg/mL in assay [6]; more than 128 µg/mL in assay [7]. Besides, the MIC is 2 µg/mL (≈ 4.16 µM) in assay [11], more than 128 µg/mL in assay [8], more than 128 µg/mL in assay [10] (setting [18]) and more than 128 µg/mL in assay [10] (setting [19]). For the same molecule, the “Fold MIC decrease” value in [1] was 32 fold.

With `Cc1ccc(S(=O)(=O)NCCN(CCC(N)=O)C(=O)c2cc(O)cc(NC(=O)CN3C(=O)C(C)Oc4ccccc43)c2)cc1` (stereo not shown) [Compound 7], in assay [12] (setting [20]), the IC50 turned out to be 492 ± 4 nM. Moreover, the MIC in assay [13] was determined as 80 µM (≈ 49.9 µg/mL).

The molecule `COc1ccc(OC)c(Cc2cnc3nc(N)nc(N)c3c2C)c1` [Compound 8] returned a half-inhibitory concentration (IC50) in assay [12] of 610 ± 420 nM. In assay [13], this molecule came in with an MIC of 2.5 µM (≈ 0.813 µg/mL).

`Cc1cccc(NC(=O)Cc2c(C(=O)O)[nH]c3ccccc23)n1` [Compound 9]: in assay [12] (setting [20]), the IC50 came to 4900 ± 2200 nM. In assay [13], this molecule returned an MIC of 80 µM (≈ 24.7 µg/mL).

In the case of `C[C@@H](O)[C@H]1C(=O)N2C(C(=O)O)=C(SCCN=CN)C[C@H]12` [Imipenem], the MIC in assay [1] (E. coli TOP10 ∆TolC + pHN678’) and in assay [1] (setting [14]) was 1 µg/mL in each case.

For teicoplanin, the MIC of teicoplanin in assay [5] (A. baumannii BM4652/pRK415-LpxA, compound 4 at 0 µg/ml) is more than 64 µg/mL; in assay [5] (A. baumannii BM4652/pRK415-LpxA, compound 4 at 4 µg/ml), more than 64 µg/mL; in assay [5] (A. baumannii BM4652/pRK415-LpxA, compound 4 at 8 µg/ml), more than 64 µg/mL; in [5] (A. baumannii BM4652/pRK415-LpxA, compound 4 at 16 µg/ml) it was more than 64 µg/mL; in assay [5] (A. baumannii BM4652/pRK415-LpxA, compound 4 at 32 µg/ml), more than 64 µg/mL; in assay [5] (A. baumannii BM4652/pRK415-LpxA, compound 4 at 64 µg/ml) it was more than 64 µg/mL. Further, the MIC of teicoplanin is more than 64 µg/mL in [5] (A. baumannii BM4652/pRK415-LpxA, compound 4 at 128 µg/ml); more than 64 µg/mL in assay [5] (A. baumannii BM4652/pRK415, compound 4 at 0 µg/ml); more than 64 µg/mL in assay [5] (A. baumannii BM4652/pRK415, compound 4 at 4 µg/ml); more than 64 µg/mL in assay [5] (A. baumannii BM4652/pRK415, compound 4 at 8 µg/ml); more than 64 µg/mL in assay [5] (A. baumannii BM4652/pRK415, compound 4 at 16 µg/ml); 0.5 µg/mL in [5] (A. baumannii BM4652/pRK415, compound 4 at 32 µg/ml). Besides, the MIC of teicoplanin in assay [5] (A. baumannii BM4652/pRK415, compound 4 at 64 µg/ml) was 0.5 µg/mL; in assay [5] (A. baumannii BM4652/pRK415, compound 4 at 128 µg/ml), 0.5 µg/mL; in assay [5] (A. baumannii BM4652, compound 4 at 0 µg/ml), more than 64 µg/mL; in assay [5] (A. baumannii BM4652, compound 4 at 4 µg/ml) it was more than 64 µg/mL; in assay [5] (A. baumannii BM4652, compound 4 at 8 µg/ml) it was more than 64 µg/mL; in [5] (A. baumannii BM4652, compound 4 at 16 µg/ml) it was 16 µg/mL. Also, the MIC of teicoplanin in assay [5] (A. baumannii BM4652, compound 4 at 32 µg/ml) was 0.5 µg/mL; in [5] (A. baumannii BM4652, compound 4 at 64 µg/ml) it was 0.5 µg/mL; in assay [5] (A. baumannii BM4652, compound 4 at 128 µg/ml), 0.5 µg/mL.

Usually IC50 stands for the concentration needed to halve the response being measured.
